Patent publication US20130060013A1, “Compounds useful for treating neurodegenerative disorders” (SATORI PHARMACEUTICALS, INC., priority 2011, published 2013)

What was measured:
Assay type in all cases: cell-based
Conditions in all cases: Homo sapiens, compound 5 hours at 37° C., 1% DMSO, percent vehicle fit to 4 parameter curve
Aβ-42 = Aβ-42 level in conditioned media of 2B7 cells (MSD 3-PLEX ELISA)
Method: (§1) Assays were conducted to determine the ability of a Compound of Formula I to modulate […], and Aβ-38.
(§2) Plates with capture antibodies were blocked for 1-2 hours at room temperature with 150 μL of the manufactures blocking reagent.
(§3) Cultured 2B7 cells in 96 well plate with 250 uL of media per well until confluent;
(§4) Prepared serial dilutions of compounds in DMSO at 100× the final desired concentration;
(§5) Washed wells with 2B7 cells 1× with 250 uL of media;
(§6) Diluted DMSO stocks 1:100 into media:
(§7) Added 250 μL of media containing compounds (1% DMSO) to wells with 2B7 cells for 5 hours at 37° C.
(§8) Diluted conditioned media: 1 part media with 1% DMSO and 1 part blocking buffer;
(§9) 150 μL of the 250 μL of conditioned media were used.
(§10) Standard Curve Sample Prep:
(§11) Prepared per manufacturer's protocol (see above)
(§12) Seven point standard curve samples were prepared that contained Aβ-42, Aβ-40, and Aβ-38. The highest concentration of Aβ-42 and Aβ-38 was 3,000 pg/mL and the highest concentration of Aβ-40 was 10,000 pg/mL. Subsequent serial dilutions were 1:3 and the final composition of each sample was 1 part blocking buffer and 1 part cell medium containing 1% DMSO.
(§13) Overnight Sample Incubation:
(§14) Blocked plates are washed 5× with MSD wash buffer with a plate washer
(§15) 25 uL of detection antibody and blocker G reagent in MSD blocking solution is added
(§16) 25 uL of samples (1 part conditioned media containing 1% DMSO and 1 part MSD blocking buffer) are then added.
(§17) plates are incubated overnight at 4 degrees C. or 2 hours at room temp
(§18) Wash wells 5× with MSD wash buffer
(§19) Added 150 μL 2×MSD read buffer
(§20) A-Beta peptide levels for each peptide are calculated from the standard curve using the MSD software provided with the MSD 2400 Imager. Percent vehicle values for each compound dosage were then calculated and fit to a 4 parameter curve generating IC50 values.

Aβ-38 = Aβ-38 level in conditioned media of 2B7 cells (MSD 3-PLEX ELISA)
Method: as §1, §2, §3, §4, §5, §6, §7, §8, §9, §10, §11, §12, §13, §14, §15, §16, §17, §18, §19, §20

Aβ-40 = Aβ-40 level in conditioned media of 2B7 cells (MSD 3-PLEX ELISA)
Method: as §1
Human (6E10) Ab 3-PLEX elisa kits were purchased from Meso Scale Discovery Labs, 9328 Gaither Road, Gaithersburg, Md. 20877 (Catalog Number K15148E-3). Plates with capture antibodies were blocked for 1-2 hours at room temperature with 150 μL of the manufactures blocking reagent.
as §3, §4, §5, §6, §7, §8, §9, §10, §11, §12, §13, §14, §15, §16, §17, §18, §19, §20

Compound	IC50 (Aβ-42)	IC50 (Aβ-38)	IC50 (Aβ-40)
CO[C@@H]([C@H]1C[C@@H](C)[C@H]2[C@H](O1)[C@H](O)[C@@]1(C)[C@@H]3CC[C@H]4C(C)(C)[C@@H](O[C@H]5CN(CCN(C)C)CCO5)CCC45C[C@@]35CC[C@]21C)C(C)(C)OC (stereo partly drawn)	< 1 µM	< 1 µM	1 to 10 µM
CO[C@@H]([C@H]1C[C@@H](C)[C@H]2[C@H](O1)[C@H](O)[C@@]1(C)[C@@H]3CC[C@H]4C(C)(C)[C@@H](O[C@H]5CN(CCN6CCOCC6)CCO5)CCC45C[C@@]35CC[C@]21C)C(C)(C)O (stereo partly drawn)	< 1 µM	< 1 µM	1 to 10 µM
CCO[C@@H]([C@H]1C[C@@H](C)[C@H]2[C@H](O1)[C@H](O)[C@@]1(C)[C@@H]3CC[C@H]4C(C)(C)[C@@H](O[C@H]5CN(CCCO)CCO5)CCC45C[C@@]35CC[C@]21C)C(C)(C)O (stereo partly drawn)	< 1 µM	1 to 10 µM	1 to 10 µM
CCO[C@@H]([C@H]1C[C@@H](C)[C@H]2[C@H](O1)[C@H](O)[C@@]1(C)[C@@H]3CC[C@H]4C(C)(C)[C@@H](O[C@H]5CN(C6CN(C(C)C)C6)CCO5)CCC45C[C@@]35CC[C@]21C)C(C)(C)OC (stereo partly drawn)	< 1 µM	< 1 µM	1 to 10 µM
CO[C@@H]([C@H]1C[C@@H](C)[C@H]2[C@H](O1)[C@H](O)[C@@]1(C)[C@@H]3CC[C@H]4C(C)(C)[C@@H](O[C@H]5CN(C6CNC6)CCO5)CCC45C[C@@]35CC[C@]21C)C(C)(C)O (stereo partly drawn)	< 1 µM	< 1 µM	1 to 10 µM
CCO[C@@H]([C@H]1C[C@@H](C)[C@H]2[C@H](O1)[C@H](O)[C@@]1(C)[C@@H]3CC[C@H]4C(C)(C)[C@@H](O[C@H]5CN(CCO)CCO5)CCC45C[C@@]35CC[C@]21C)C(C)(C)O (stereo partly drawn)	< 1 µM	< 1 µM	1 to 10 µM
CCO[C@@H]([C@H]1C[C@@H](C)[C@H]2[C@H](O1)[C@H](O)[C@@]1(C)[C@@H]3CC[C@H]4C(C)(C)[C@@H](OC(=O)[C@@H]5CCCN5C)CCC45C[C@@]35CC[C@]21C)C(C)(C)O (stereo partly drawn)	< 1 µM	< 1 µM	1 to 10 µM
CCO[C@@H]([C@H]1C[C@@H](C)[C@H]2[C@H](O1)[C@H](O)[C@@]1(C)[C@@H]3CC[C@H]4C(C)(C)[C@@H](O[C@H]5CN(CCF)CCO5)CCC45C[C@@]35CC[C@]21C)C(C)(C)O (stereo partly drawn)	< 1 µM	< 1 µM	1 to 10 µM
CCO[C@@H]([C@H]1C[C@@H](C)[C@H]2[C@H](O1)[C@H](O)[C@@]1(C)[C@@H]3CC[C@H]4C(C)(C)[C@@H](OC(=O)[C@H]5CNCCO5)CCC45C[C@@]35CC[C@]21C)C(C)(C)O (stereo partly drawn)	< 1 µM	< 1 µM	1 to 10 µM
CCO[C@@H]([C@H]1C[C@@H](C)[C@H]2[C@H](O1)[C@H](O)[C@@]1(C)[C@@H]3CC[C@H]4C(C)(C)[C@@H](OC(=O)[C@H]5CCCN5)CCC45C[C@@]35CC[C@]21C)C(C)(C)O (stereo partly drawn)	< 1 µM	< 1 µM	1 to 10 µM
CCO[C@@H]([C@H]1C[C@@H](C)[C@H]2[C@H](O1)[C@H](O)[C@@]1(C)[C@@H]3CC[C@H]4C(C)(C)[C@@H](OC(=O)[C@@H]5COCCN5C)CCC45C[C@@]35CC[C@]21C)C(C)(C)O (stereo partly drawn)	< 1 µM	< 1 µM	1 to 10 µM
CCO[C@@H]([C@H]1C[C@@H](C)[C@H]2[C@H](O1)[C@H](O)[C@@]1(C)[C@@H]3CC[C@H]4C(C)(C)C(O[C@H]5CN(CCNC(=O)CCC6(C)N=N6)CCO5)CC[C@@]45CC35CC[C@]21C)C(C)(C)O (stereo partly drawn)	< 1 µM	< 1 µM	> 10 µM
CCO[C@@H]([C@H]1C[C@@H](C)[C@H]2[C@H](O1)[C@H](O)[C@@]1(C)[C@@H]3CC[C@H]4C(C)(C)[C@@H](OC(=O)[C@@H]5COCCN5)CCC45C[C@@]35CC[C@]21C)C(C)(C)O (stereo partly drawn)	< 1 µM	< 1 µM	1 to 10 µM
CCO[C@@H]([C@H]1C[C@@H](C)[C@H]2[C@H](O1)[C@H](O)[C@@]1(C)[C@@H]3CC[C@H]4C(C)(C)[C@@H](OC(=O)CN5CCOCC5)CCC45C[C@@]35CC[C@]21C)C(C)(C)O (stereo partly drawn)	< 1 µM	< 1 µM	1 to 10 µM
CCO[C@@H]([C@H]1C[C@@H](C)[C@H]2[C@H](O1)[C@H](O)[C@@]1(C)[C@@H]3CC[C@H]4C(C)(C)[C@@H](O[C@H]5CN(Cc6ncc[nH]6)CCO5)CCC45C[C@@]35CC[C@]21C)C(C)(C)O (stereo partly drawn)	< 1 µM	< 1 µM	1 to 10 µM
CCO[C@@H]([C@H]1C[C@@H](C)[C@H]2[C@H](O1)[C@H](O)[C@@]1(C)[C@@H]3CC[C@H]4C(C)(C)[C@@H](OC(=O)C5CNC5)CCC45C[C@@]35CC[C@]21C)C(C)(C)O (stereo partly drawn)	< 1 µM	< 1 µM	1 to 10 µM
CCO[C@@H]([C@H]1C[C@@H](C)[C@H]2[C@H](O1)[C@H](O)[C@@]1(C)[C@@H]3CC[C@H]4C(C)(C)[C@@H](O[C@H]5CN(CCN6CCOC6=O)CCO5)CCC45C[C@@]35CC[C@]21C)C(C)(C)O (stereo partly drawn)	< 1 µM	< 1 µM	1 to 10 µM
CCO[C@@H]([C@H]1C[C@@H](C)[C@H]2[C@H](O1)[C@H](O)[C@@]1(C)[C@@H]3CC[C@H]4C(C)(C)[C@@H](OC5CN(CC(=O)N6CCOCC6)CCO5)CCC45C[C@@]35CC[C@]21C)C(C)(C)O (stereo partly drawn)	< 1 µM	< 1 µM	> 10 µM
CCO[C@@H]([C@H]1C[C@@H](C)[C@H]2[C@H](O1)[C@H](O)[C@@]1(C)[C@@H]3CC[C@H]4C(C)(C)[C@@H](OC(=O)[C@H]5COCCN5)CCC45C[C@@]35CC[C@]21C)C(C)(C)O (stereo partly drawn)	< 1 µM	< 1 µM	1 to 10 µM
CCO[C@@H]([C@H]1C[C@@H](C)[C@H]2[C@H](O1)[C@H](O)[C@@]1(C)[C@@H]3CC[C@H]4C(C)(C)[C@@H](OC(=O)c5cccnc5)CCC45C[C@@]35CC[C@]21C)C(C)(C)O (stereo partly drawn)	< 1 µM	< 1 µM	> 10 µM
CCO[C@@H](C1C[C@@H](C)[C@H]2C(O1)[C@H](O)[C@@]1(C)C3CC[C@H]4C(C)(C)[C@@H](O[C@H]5CN(c6cnccn6)CCO5)CCC45C[C@@]35CC[C@]21C)C(C)(C)O (stereo partly drawn)	< 1 µM	< 1 µM	> 10 µM
CCO[C@@H]([C@H]1C[C@@H](C)[C@H]2[C@H](O1)[C@H](O)[C@@]1(C)[C@@H]3CC[C@H]4C(C)(C)[C@@H](O[C@H]5CN(Cc6ccn(C)n6)CCO5)CCC45C[C@@]35CC[C@]21C)C(C)(C)O (stereo partly drawn)	< 1 µM	1 to 10 µM	> 10 µM
CCO[C@@H]([C@H]1C[C@@H](C)[C@H]2[C@H](O1)[C@H](O)[C@@]1(C)[C@@H]3CC[C@H]4C(C)(C)[C@@H](O[C@H]5CN(CC6CN(C)C6)CCO5)CCC45C[C@@]35CC[C@]21C)C(C)(C)OC (stereo partly drawn)	< 1 µM	< 1 µM	1 to 10 µM
CCO[C@@H]([C@H]1C[C@@H](C)[C@H]2[C@H](O1)[C@H](O)[C@@]1(C)[C@@H]3CC[C@H]4C(C)(C)[C@@H](O[C@H]5CN(C(C)(C)CN6CCOCC6)CCO5)CCC45C[C@@]35CC[C@]21C)C(C)(C)O (stereo partly drawn)	< 1 µM	< 1 µM	1 to 10 µM
CCO[C@@H]([C@H]1C[C@@H](C)[C@H]2[C@H](O1)[C@H](O)[C@@]1(C)[C@@H]3CC[C@H]4C(C)(C)[C@@H](OC(=O)[C@@H]5COCCN5C(C)C)CCC45C[C@@]35CC[C@]21C)C(C)(C)O (stereo partly drawn)	< 1 µM	1 to 10 µM	> 10 µM
CCO[C@@H]([C@H]1C[C@@H](C)[C@H]2[C@H](O1)[C@H](O)[C@]1(C)[C@@H]3CC[C@H]4C(C)(C)[C@@H](O[C@H]5CN(C(=O)C6CNC6)CCO5)CC[C@@]45C[C@@]35CC[C@@]21C)C(C)(C)O	< 1 µM	< 1 µM	1 to 10 µM
CCO[C@@H](C1C[C@@H](C)[C@H]2C(O1)[C@H](O)[C@@]1(C)C3CC[C@H]4C(C)(C)[C@@H](O[C@H]5CN(c6ccccn6)CCO5)CCC45C[C@@]35CC[C@]21C)C(C)(C)O (stereo partly drawn)	1 to 10 µM	1 to 10 µM	1 to 10 µM
COCCN1CCO[C@@H](O[C@H]2CCC34C[C@]35CC[C@]3(C)[C@@H]6[C@H](O[C@@H]([C@H](OC)C(C)(C)OC)C[C@H]6C)[C@H](O)[C@@]3(C)[C@@H]5CC[C@H]4C2(C)C)C1 (stereo partly drawn)	< 1 µM	1 to 10 µM	> 10 µM
